In one series the target is T1, human FFAR2 (Homo sapiens, UniProt O15552).
T1 construct: expressed in transfected cells; host or cells: Flp-In T-REx 293 cells, induced; membrane preparations
T1 sequence (O15552 1-330): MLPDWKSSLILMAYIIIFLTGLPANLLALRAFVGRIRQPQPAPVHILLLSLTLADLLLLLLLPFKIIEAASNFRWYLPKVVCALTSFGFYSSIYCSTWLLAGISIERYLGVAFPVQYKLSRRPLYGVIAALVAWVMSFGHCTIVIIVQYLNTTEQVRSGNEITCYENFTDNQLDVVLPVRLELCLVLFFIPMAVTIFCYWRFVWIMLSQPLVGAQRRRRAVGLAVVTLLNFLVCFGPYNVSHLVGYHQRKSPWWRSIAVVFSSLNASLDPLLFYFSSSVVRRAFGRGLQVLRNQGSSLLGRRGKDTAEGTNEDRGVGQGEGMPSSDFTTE
Put plainly: [35S]GTPγS binding, block of C3 (propionate) at FFAR2. The format is biochemical. The conditions noted are these: tested at 10 μM.

The next series has as its target T2, human FFAR3 (Homo sapiens, UniProt O14843).
T2 construct: expressed in transfected cells; host or cells: Flp-In T-REx 293 cells, induced; membrane preparations
T2 sequence (O14843 1-346): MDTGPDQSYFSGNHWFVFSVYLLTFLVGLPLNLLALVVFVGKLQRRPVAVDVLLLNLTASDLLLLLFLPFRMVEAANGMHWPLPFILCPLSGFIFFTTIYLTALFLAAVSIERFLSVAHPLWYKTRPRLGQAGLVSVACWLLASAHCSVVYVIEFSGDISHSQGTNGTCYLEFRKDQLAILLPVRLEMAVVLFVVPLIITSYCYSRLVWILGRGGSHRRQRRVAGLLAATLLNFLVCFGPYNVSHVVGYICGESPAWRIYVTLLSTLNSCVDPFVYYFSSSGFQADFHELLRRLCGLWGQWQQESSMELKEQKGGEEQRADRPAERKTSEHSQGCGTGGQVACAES
As to the kind of experiment: [35S]GTPγS binding, block of C3 (propionate) at FFAR3. The format is biochemical. The conditions noted are these: tested at 10 μM.

A short description of series [1]: Log D7.4 (distribution coefficient). The class given is physicochemical. As to conditions: pH 7.4.
A further series in a line: physchem. The source says: DPI = 4,5-Diphenylimidazole
(2 pictures or pasted objects on this page, not shown here)

A short description of series [2]: Mouse hepatocyte stability. The format is in vitro ADME. As to conditions: hepatocytes, read-out: mouse heps t1/2.
A further series deals with mouse plasma protein. As to the kind of experiment: Mouse plasma protein binding. The format is in vitro ADME.
A further series in a line: in vitro. The conditions noted are these: human, microsomes.
The target in series [3] is T3, human GPR84 (Homo sapiens, UniProt P04899+Q9NQS5).
T3 construct: expressed in transfected cells; host or cells: Flp-In T-REx 293 cells, doxycycline-induced; membrane preparations
T3 sequence (Q9NQS5+P04899 fused): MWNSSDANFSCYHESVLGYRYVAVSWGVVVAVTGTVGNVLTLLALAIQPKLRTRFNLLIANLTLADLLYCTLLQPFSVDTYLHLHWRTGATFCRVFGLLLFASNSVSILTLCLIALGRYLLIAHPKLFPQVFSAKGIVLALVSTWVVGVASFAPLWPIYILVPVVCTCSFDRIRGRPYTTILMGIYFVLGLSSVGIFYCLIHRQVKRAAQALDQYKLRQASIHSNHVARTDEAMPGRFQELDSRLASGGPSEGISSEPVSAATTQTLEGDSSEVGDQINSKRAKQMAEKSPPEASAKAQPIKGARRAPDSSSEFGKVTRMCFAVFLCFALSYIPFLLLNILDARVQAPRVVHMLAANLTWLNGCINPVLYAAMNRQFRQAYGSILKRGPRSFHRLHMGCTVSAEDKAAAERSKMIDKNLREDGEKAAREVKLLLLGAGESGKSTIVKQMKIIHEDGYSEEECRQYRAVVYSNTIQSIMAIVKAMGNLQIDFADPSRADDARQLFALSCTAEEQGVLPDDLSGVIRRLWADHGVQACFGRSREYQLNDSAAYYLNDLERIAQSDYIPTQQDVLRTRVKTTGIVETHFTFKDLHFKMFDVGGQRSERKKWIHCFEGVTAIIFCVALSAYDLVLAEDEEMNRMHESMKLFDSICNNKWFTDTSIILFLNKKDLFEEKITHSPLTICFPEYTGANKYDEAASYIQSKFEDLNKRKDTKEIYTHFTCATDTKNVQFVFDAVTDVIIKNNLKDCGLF
Put plainly: biochemical. The class given is biochemical. The conditions noted are these: for LLE: LLE = pIC50 – CLog P; for GTPγS (pIC50): [35S]GTPγS assay, negative log of the IC50 in molar, mean ± SEM. A general note: GTPγS is a poorly hydrolysed GTP analogue; its binding reports G protein activation.

In series [4] the target is T4, human GPR84 (Homo sapiens, UniProt Q9NQS5).
T4 construct: expressed in transfected cells; host or cells: Flp-In T-REx 293 cells, doxycycline-induced; membrane preparations
T4 sequence (Q9NQS5+P04899 fused): as above
As to the kind of experiment: biochemical. The format is biochemical. The conditions noted are these: [35S]GTPγS assay; negative log of the IC50 in molar; mean ± SEM; read-out: GTPγS (pIC50) (converted).

Series [5] in a line: In vivo mouse PK, IV dosing. The conditions noted are these: IV (1 mg/kg), CV % in parenthesis. As for the experimental part: (§1) Mouse pharmacokinetic studies were carried out by Xenogesis Ltd. (Nottingham, U.K.). All life phases were conducted in accordance with the local Ethics Review process.
Male C57BL/6J mice (n = 3, Charles River, U.K.) were intravenously administered with a dose of 1 mg/kg of the appropriate compound (formulation 5% v/v DMSO in 20% w/v HPCD in water). […] Plasma concentrations were determined by LC/MS/MS. LC/MS/MS analysis was performed using a Thermo TSQ Quantiva with Thermo Vanquish UPLC system on a Luna Omega C18 column. The plasma concentrations were simulated by nonparametric analysis from the plasma concentrations obtained in the PK study using Phoenix WinNonlin.

The nature of series [6]: In vivo mouse PK, PO dosing. As to conditions: for Tmax / AUCall / Cmax: PO (10 mg/kg); for AUCall / Cmax / bioavailability: CV % in parenthesis; for bioavailability: male, C57BL/6J, plasma, PO (10 mg/kg) vs IV (1 mg/kg). As for the experimental part:
as §1
Male C57BL/6J mice (n = 3, Charles River, U.K.) were orally administered with a dose of 10 mg/kg of the appropriate compound (formulation 0.5% w/v methylcellulose in water). […] Plasma concentrations were determined by LC/MS/MS. LC/MS/MS analysis was performed using a Thermo TSQ Quantiva with Thermo Vanquish UPLC system on a Luna Omega C18 column. The plasma concentrations were simulated by nonparametric analysis from the plasma concentrations obtained in the PK study using Phoenix WinNonlin.

Series [7] can be described thus: Mouse plasma protein binding. The class given is in vitro ADME. The conditions noted are these: read-out: mouse PPB.
Where [8] appears, read: pH 7.4, kinetic solubility, PBS pH7.4 in 2% DMSO.
Where [9] appears, read: pH 7.4, Kinetic Solubility, R=1, PBS pH7.4 in 2% DMSO by plate reader, replicate 1.
[10] abbreviates: pH 7.4, Kinetic Solubility, R=2, PBS pH7.4 in 2% DMSO by plate reader, replicate 2.

The text below walks through data of publication PMC9421653 (Journal of Medicinal Chemistry, 2022).

≈ marks a conversion by molar mass, not a printed value. Entries after “also recorded” stand apart in the source; their conditions may differ. Bounds are passed on as bounds.

`c1ccc(-c2nnc(Cc3c[nH]c4ccccc34)nc2-c2ccccc2)cc1` [Compound 4, 3-((5,6-Diphenyl-1,2,4-triazin-3-yl)methyl)-1H-indole]: the “block of the actions of the C3 fatty acid propionate at FFAR2” value (from here on “block of the actions … at FFAR2”) at human FFAR2 is listed as “no ability to block; also recorded: did not block”. Further, at human FFAR3, the “block of the actions of the C3 fatty acid propionate at FFAR3” value (“block of the actions … at FFAR3” below) is “no ability to block; also recorded: did not block”. In series [1], this compound had a logD of 4.24. The kinetic solubility in the series “physchem” (pH 7.4, Kinetic Solubility, R=1, PBS pH7.4 in 2% DMSO by LC-MS, replicate 1) was 1.5 µM (≈ 0.544 µg/mL); in the series “physchem” (pH 7.4, Kinetic Solubility, R=2, PBS pH7.4 in 2% DMSO by LC-MS, replicate 2), 1.3 µM (≈ 0.471 µg/mL); in the series “physchem” (setting [8]), 1.4 µM (≈ 0.507 µg/mL). The half-life in series [2] amounted to 4.4 min; in the series “in vitro” it was 21.8 min. The “mouse PPB” value in the series with mouse plasma protein was <1 %free.
`Cc1nnc(Cc2c[nH]c3ccccc23)nc1-c1ccccc1` [Compound 28, 3-[(6-Methyl-5-phenyl-1,2,4-triazin-3-yl)methyl]-1H-indole] came in with an LLE at human GPR84 [3] of 1.73. On human GPR84 [4], the IC50 is 10200 nM.
The corresponding values for `Cc1nc(Cc2c[nH]c3ccccc23)nnc1-c1ccccc1` [Compound 29, 3-[(5-Methyl-6-phenyl-1,2,4-triazin-3-yl)methyl]-1H-indole] are 1.99 and 5620 nM.
Turning to `c1ccc(-c2nc(Cc3c[nH]c4ccccc34)nnc2-c2ccc(CN3CCOCC3)cc2)cc1` [Compound 42, 4-(4-(3-((1H-Indol-3-yl)methyl)-5-phenyl-1,2,4-triazin-6-yl)benzyl)morpholine], the “GTPγS (pIC50)” value at human GPR84 [3] came out at 8.28 ± 0.11. Besides, the “block of the actions … at FFAR2” value on human FFAR2 is “no ability to block; also recorded: did not block”. Besides, the “block of the actions … at FFAR3” value at human FFAR3 is recorded as “no ability to block; also recorded: did not block”. This compound came in with a logD in series [1] of 3.84. Also, the kinetic solubility in “physchem” (setting [9]) came to 12 µM (≈ 5.54 µg/mL). Also, the kinetic solubility in the series “physchem” (setting [10]) was determined as 16 µM (≈ 7.39 µg/mL). Moreover, the kinetic solubility in the series “physchem” (setting [8]) amounted to 14 µM (≈ 6.46 µg/mL). In [2], the half-life stood at 16 min. In addition, the “mouse PPB” value in the series on mouse plasma protein is given as <1 %free. Moreover, in [5], the AUCall is 420 (12.5) ng/mL·h, the C0 is reported as 394 (19.1) ng/mL, the CL was 38.9 (13.9) mL/min/kg and the Vss is recorded as 7.24 (9.2) L/kg. The half-life in series [5] is 2.51 (6.55) h. Moreover, in series [6], the Tmax came out at 60 min, the AUCall was 1590 (18.7) ng/mL·h, the Cmax is 402 (31.8) ng/mL and the bioavailability worked out at 36.8%. The compound further displayed a half-life in the series “in vitro” of 12.8 min.
On to `CNC(=O)c1ccc(-c2nnc(Cc3c[nH]c4cnccc34)nc2-c2ccccc2)cc1` [Compound 68, 4-(3-((1H-Pyrrolo[2,3-c]pyridin-3-yl)methyl)-5-phenyl-1,2,4-triazin-6-yl)-N-methylbenzamide], for which the “GTPγS (pIC50)” value on human GPR84 [3] amounted to 7.29 ± 0.05. This compound displayed a logD in [1] of 2.71. Also, the kinetic solubility in the series “physchem” (setting [9]) was found to be 149 µM (≈ 62.7 µg/mL); in the series “physchem” (setting [10]), 143 µM (≈ 60.1 µg/mL); in “physchem” (setting [8]) it was 146 µM (≈ 61.4 µg/mL). Besides, the half-life in series [2] stood at 12.5 min; in “in vitro”, 39.9 min. Besides, the fraction unbound in [7] is 0.038.
Turning to `O=C(NCCO)c1ccc(-c2nnc(Cc3c[nH]c4ccccc34)nc2-c2ccccc2)cc1` [Compound 76, 4-(3-((1H-Indol-3-yl)methyl)-5-phenyl-1,2,4-triazin-6-yl)-N-(2-hydroxyethyl)benzamide], the “GTPγS (pIC50)” value on human GPR84 [3] was 7.46 ± 0.07. Moreover, the “block of the actions … at FFAR2” value at human FFAR2 is on record as “no ability to block; also recorded: did not block”. Moreover, the “block of the actions … at FFAR3” value on human FFAR3 is “no ability to block; also recorded: did not block”. In addition, the logD in series [1] came out at 3.09. This compound displayed a solubility (kinetic) in the series “physchem” (setting [9]) of 59 µM (≈ 26.5 µg/mL). Moreover, the solubility (kinetic) in “physchem” (setting [10]) came out at 62 µM (≈ 27.9 µg/mL). In addition, the solubility (kinetic) in the series “physchem” (setting [8]) worked out at 61 µM (≈ 27.4 µg/mL). Moreover, the half-life in series [2] was 47.3 min. Further, the fraction unbound in [7] is 0.011. In series [5], the AUCall is 757 (10.8) ng/mL·h, the C0 is reported as 1170 (29.6) ng/mL, the CL is reported as 22.0 (11.3) mL/min/kg and the Vss is 1.81 (15.2) L/kg. Besides, in series [5], the half-life was 1.22 (13.5) h. Further, in series [6], the Tmax worked out at 60 min, the AUCall is recorded as 3160 (8.82) ng/mL·h, the Cmax was 1080 (16.1) ng/mL and the bioavailability turned out to be 41.5%. The same compound came in with a half-life in the series “in vitro” of 57.2 min.
For `CN1CCN(C(=O)c2ccc(-c3nc(Cc4c[nH]c5ccccc45)nnc3-c3ccccc3)cc2)CC1` [Compound 86, (4-(3-((1H-Indol-3-yl)methyl)-6-phenyl-1,2,4-triazin-5-yl)phenyl)(4-methylpiperazin-1-yl)methanone], the IC50 on human GPR84 [4] is 955 nM.
Still for that read-out and setting: next, `COCCNC(=O)c1ccc(-c2nc(Cc3c[nH]c4ccccc34)nnc2-c2ccccc2)cc1` [Compound 87, 4-(3-((1H-Indol-3-yl)methyl)-6-phenyl-1,2,4-triazin-5-yl)-N-(2-methoxyethyl)benzamide]: 72.4 nM; `CC(=O)NCCNC(=O)c1ccc(-c2nc(Cc3c[nH]c4ccccc34)nnc2-c2ccccc2)cc1` [Compound 88, 4-(3-((1H-Indol-3-yl)methyl)-6-phenyl-1,2,4-triazin-5-yl)-N-(2-acetamidoethyl)benzamide]: 209 nM; `CN1CCN(C(=O)c2ccc(-c3nc(Cc4c[nH]c5ccccc45)nnc3-c3ccccc3)cc2)CC1=O` [Compound 89, 4-(4-(3-((1H-Indol-3-yl)methyl)-6-phenyl-1,2,4-triazin-5-yl)benzoyl)-1-methylpiperazin-2-one]: 490 nM.
Same read-out and setting: next, `NC(=O)CNC(=O)c1ccc(-c2nc(Cc3c[nH]c4ccccc34)nnc2-c2ccccc2)cc1` [Compound 90, 4-(3-((1H-Indol-3-yl)methyl)-6-phenyl-1,2,4-triazin-5-yl)-N-(2-amino-2-oxoethyl)benzamide]: 380 nM.

What is called logD is the decadic logarithm of the distribution of all forms, ionised or not, between an organic phase and buffer at a given pH. By solubility (kinetic) is commonly meant solubility judged after dilution from a stock solution rather than from solid. Broadly, the Tmax is the time at which the peak concentration occurs. In general, bioavailability refers to dose-corrected exposure relative to a reference, in per cent.
